# Literature values, collected in PMC10215804, “Exploring Alternative Pathways to Target Bacterial Type II Topoisomerases Using NBTI Antibacterials: Beyond Halogen-Bonding Interactions” (Antibiotics, 2023).
# Assays:
# P. aeruginosa RDK 184 = details: cited from earlier work
# E. coli D22 = details: lpxC mutation; cited from earlier work
# S. aureus (ATCC 29213) = details: cited from earlier work
# VRE = details: cited from earlier work
# S. aureus topoIV = target: T1, S. aureus topoIV (Staphylococcus aureus, UniProt P0C1U9); details: relaxation inhibition; cited from earlier work
# T1 construct: purchased Inspiralis (Norwich, UK)
# E. faecalis RDK 057 = details: cited from earlier work
# E. coli N43 (CGSC# 5583) = details: AcrA knockout; cited from earlier work
# MRSA(QA-12.1) = test system: MRSA(QA-12.1); design: method as in PMID 35970069; details: cited from earlier work
# human topoisomerase IIα = target: T2, human topoisomerase IIα (Homo sapiens, UniProt P11388); details: residual activity at 100 µM compound; cited from earlier work
# T2 construct: purchased Inspiralis (Norwich, UK)
# T2 sequence (P11388 whole entry): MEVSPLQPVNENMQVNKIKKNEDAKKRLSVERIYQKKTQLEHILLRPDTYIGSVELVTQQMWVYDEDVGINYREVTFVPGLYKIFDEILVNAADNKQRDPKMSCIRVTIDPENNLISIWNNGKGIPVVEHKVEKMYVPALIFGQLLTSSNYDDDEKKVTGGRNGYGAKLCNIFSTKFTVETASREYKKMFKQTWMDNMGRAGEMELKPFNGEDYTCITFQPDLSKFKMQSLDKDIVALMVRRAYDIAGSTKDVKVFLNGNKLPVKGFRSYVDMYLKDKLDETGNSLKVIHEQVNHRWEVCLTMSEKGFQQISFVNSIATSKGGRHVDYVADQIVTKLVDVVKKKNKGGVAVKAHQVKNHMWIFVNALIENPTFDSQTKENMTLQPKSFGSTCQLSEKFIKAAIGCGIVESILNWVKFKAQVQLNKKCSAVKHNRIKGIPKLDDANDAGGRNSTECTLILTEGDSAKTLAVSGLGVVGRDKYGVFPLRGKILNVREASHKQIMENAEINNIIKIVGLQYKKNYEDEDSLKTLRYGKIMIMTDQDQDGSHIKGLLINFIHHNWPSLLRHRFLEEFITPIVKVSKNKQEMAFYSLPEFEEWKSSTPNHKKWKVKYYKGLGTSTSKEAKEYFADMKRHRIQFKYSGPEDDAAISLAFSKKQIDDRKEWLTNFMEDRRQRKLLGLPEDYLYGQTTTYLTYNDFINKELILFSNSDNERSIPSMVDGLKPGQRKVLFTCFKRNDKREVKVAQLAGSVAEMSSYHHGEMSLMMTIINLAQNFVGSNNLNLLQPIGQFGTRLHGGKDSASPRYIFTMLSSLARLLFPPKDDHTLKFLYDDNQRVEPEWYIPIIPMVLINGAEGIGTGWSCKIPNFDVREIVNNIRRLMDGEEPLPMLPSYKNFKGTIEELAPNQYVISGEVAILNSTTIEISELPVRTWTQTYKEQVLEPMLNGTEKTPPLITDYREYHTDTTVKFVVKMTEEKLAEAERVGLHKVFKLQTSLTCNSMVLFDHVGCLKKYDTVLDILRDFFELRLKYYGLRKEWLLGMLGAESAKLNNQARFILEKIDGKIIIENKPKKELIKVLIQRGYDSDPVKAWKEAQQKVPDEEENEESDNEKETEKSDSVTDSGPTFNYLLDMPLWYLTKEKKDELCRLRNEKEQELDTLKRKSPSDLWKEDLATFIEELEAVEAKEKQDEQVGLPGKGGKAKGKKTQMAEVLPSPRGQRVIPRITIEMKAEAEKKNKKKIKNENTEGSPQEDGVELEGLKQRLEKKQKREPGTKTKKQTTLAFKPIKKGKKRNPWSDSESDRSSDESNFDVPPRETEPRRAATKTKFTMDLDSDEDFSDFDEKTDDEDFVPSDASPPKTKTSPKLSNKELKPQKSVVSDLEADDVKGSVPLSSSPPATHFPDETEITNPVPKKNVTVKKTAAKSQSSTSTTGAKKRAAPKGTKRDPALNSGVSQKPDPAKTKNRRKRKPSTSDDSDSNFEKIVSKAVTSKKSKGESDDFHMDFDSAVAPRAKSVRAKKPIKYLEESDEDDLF
# E. coli DNA gyrase = target: T3, E. coli DNA gyrase (Escherichia coli, UniProt P0AES4); details: supercoiling inhibition; cited from earlier work
# T3 construct: purchased Inspiralis (Norwich, UK)
# S. aureus DNA gyrase = target: T4, S. aureus DNA gyrase (Staphylococcus aureus, UniProt P20831); details: supercoiling inhibition; cited from earlier work
# T4 construct: purchased Inspiralis (Norwich, UK)
# T4 sequence (P20831 whole entry): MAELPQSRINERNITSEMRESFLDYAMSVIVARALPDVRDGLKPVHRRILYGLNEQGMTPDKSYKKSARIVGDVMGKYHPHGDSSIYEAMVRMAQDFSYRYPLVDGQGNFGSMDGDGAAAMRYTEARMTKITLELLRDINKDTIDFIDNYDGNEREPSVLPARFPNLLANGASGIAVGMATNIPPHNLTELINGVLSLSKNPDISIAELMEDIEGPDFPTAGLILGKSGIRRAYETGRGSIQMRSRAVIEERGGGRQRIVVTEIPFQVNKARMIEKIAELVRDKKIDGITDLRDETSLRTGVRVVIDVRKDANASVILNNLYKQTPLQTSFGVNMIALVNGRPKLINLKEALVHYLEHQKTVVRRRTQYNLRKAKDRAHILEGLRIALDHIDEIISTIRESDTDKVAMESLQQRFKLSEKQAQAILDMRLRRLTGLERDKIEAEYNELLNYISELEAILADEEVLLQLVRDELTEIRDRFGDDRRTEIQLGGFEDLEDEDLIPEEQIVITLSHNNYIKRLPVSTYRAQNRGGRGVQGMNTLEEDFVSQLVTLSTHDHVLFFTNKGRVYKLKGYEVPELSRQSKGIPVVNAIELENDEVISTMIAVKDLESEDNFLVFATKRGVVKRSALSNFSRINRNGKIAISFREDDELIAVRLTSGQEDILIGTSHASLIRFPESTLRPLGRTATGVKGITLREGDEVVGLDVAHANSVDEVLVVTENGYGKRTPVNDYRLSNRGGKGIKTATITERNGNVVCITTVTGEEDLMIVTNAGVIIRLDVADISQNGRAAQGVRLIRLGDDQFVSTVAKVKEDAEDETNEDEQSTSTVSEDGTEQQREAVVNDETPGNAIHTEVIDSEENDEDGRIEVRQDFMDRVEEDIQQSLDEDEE
# T4 sequence (P0A0K8 whole entry partner): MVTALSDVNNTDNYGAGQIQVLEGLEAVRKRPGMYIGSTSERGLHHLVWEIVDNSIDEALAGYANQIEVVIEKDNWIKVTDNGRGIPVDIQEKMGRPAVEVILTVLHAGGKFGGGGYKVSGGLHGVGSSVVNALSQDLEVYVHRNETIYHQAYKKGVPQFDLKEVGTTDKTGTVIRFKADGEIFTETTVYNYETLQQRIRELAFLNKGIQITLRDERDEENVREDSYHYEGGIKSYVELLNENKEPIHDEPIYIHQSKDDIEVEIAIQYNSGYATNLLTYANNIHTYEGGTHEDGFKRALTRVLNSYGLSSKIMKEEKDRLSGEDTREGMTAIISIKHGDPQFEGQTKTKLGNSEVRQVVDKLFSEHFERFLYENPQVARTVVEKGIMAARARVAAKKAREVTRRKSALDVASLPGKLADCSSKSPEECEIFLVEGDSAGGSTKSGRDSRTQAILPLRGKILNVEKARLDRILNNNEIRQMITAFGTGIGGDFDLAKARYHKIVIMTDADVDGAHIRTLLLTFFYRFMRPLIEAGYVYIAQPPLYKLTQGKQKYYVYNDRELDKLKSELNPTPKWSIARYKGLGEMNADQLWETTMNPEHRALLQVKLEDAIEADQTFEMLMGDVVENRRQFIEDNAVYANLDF
# MRSA (QA-11.2) = test system: MRSA (QA-11.2); design: method as in PMID 35970069; details: cited from earlier work
# A. baumannii = test system: A. baumannii; design: method as in PMID 35970069; details: cited from earlier work
# MRSA (QA-11.7) = details: cited from earlier work
# E. coli (ATCC 25922) = details: cited from earlier work
# E. coli ESBL QA-11.3 = test system: E. coli ESBL QA-11.3; design: method as in PMID 35970069; details: cited from earlier work
# E. coli topoIV = target: T5, E. coli topoIV (Escherichia coli, UniProt P0AFI2); details: relaxation inhibition; cited from earlier work
# T5 construct: purchased Inspiralis (Norwich, UK)
# T5 sequence (P20083 whole entry): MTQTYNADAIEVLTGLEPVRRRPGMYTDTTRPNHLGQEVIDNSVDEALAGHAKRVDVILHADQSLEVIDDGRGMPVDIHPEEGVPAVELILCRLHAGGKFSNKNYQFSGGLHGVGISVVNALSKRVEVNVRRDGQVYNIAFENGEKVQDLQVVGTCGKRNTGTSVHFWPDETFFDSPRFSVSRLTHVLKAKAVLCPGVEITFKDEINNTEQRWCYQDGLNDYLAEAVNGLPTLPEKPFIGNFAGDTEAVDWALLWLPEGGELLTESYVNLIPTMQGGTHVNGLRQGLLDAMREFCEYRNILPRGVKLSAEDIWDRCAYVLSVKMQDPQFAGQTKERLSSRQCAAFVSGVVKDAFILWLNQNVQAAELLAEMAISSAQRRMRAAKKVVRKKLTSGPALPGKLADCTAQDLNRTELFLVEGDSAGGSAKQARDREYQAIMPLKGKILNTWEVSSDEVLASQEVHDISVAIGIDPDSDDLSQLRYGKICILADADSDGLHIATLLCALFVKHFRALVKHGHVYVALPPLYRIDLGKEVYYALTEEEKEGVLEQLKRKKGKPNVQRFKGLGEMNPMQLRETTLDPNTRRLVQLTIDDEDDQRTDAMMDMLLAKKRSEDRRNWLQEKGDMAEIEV
# T5 sequence (P0AFI2 whole entry): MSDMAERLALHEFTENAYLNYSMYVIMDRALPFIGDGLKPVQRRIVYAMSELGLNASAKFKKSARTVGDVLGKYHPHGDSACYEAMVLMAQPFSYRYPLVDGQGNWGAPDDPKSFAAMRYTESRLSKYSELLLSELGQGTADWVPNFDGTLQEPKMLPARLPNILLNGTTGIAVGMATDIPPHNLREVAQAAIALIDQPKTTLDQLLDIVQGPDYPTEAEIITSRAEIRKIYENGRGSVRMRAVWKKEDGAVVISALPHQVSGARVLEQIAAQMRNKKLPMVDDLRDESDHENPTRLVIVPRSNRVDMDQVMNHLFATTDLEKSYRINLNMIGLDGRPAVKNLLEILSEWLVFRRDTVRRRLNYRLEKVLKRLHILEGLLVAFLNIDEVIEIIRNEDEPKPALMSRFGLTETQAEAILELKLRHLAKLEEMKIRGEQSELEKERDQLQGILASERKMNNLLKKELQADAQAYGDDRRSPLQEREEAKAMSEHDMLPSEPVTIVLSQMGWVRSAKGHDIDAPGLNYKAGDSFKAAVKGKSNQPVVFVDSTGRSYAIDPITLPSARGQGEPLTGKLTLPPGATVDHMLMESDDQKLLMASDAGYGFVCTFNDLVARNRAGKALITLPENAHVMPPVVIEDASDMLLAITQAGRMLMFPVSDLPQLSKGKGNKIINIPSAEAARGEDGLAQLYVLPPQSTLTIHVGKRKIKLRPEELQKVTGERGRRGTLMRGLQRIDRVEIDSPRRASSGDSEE
# K. pneumoniae = test system: K. pneumoniae; design: method as in PMID 35970069; details: cited from earlier work
compound,measurement,setting,value
COc1ccc2nccc(C(O)CC3CC[C@H](NCc4ccc(Br)cc4)CO3)c2n1 (stereo partly drawn) [Compound 4],MIC P. aeruginosa RDK 184,P. aeruginosa RDK 184,128 µg/mL
same,MIC E. coli D22,E. coli D22,1 µg/mL
same,MIC S. aureus (ATCC 29213),S. aureus (ATCC 29213),0.016 µg/mL
same,MIC VRE,VRE,0.032 µg/mL
same,IC50,S. aureus topoIV,> 100000 nM
same,MIC E. faecalis RDK 057,E. faecalis RDK 057,0.5 µg/mL
same,MIC E. coli N43 (CGSC# 5583),E. coli N43 (CGSC# 5583),0.25 µg/mL
same,MIC MRSA(QA-12.1),MRSA(QA-12.1),0.016 µg/mL
same,Human TopoIIα (% RA at 100 µM),human topoisomerase IIα,106 ± 0%
same,IC50,E. coli DNA gyrase,1570 ± 404 nM
same,IC50,S. aureus DNA gyrase,65 ± 2 nM
same,MIC MRSA (QA-11.2),MRSA (QA-11.2),0.031 µg/mL
same,MIC A. baumannii,A. baumannii,>128 µg/mL
same,MIC MRSA (QA-11.7),MRSA (QA-11.7),0.016 µg/mL
same,MIC E. coli (ATCC 25922),E. coli (ATCC 25922),16 µg/mL
same,MIC E. coli ESBL QA-11.3,E. coli ESBL QA-11.3,>128 µg/mL
same,IC50,E. coli topoIV,52 ± 3 nM
same,MIC K. pneumoniae,K. pneumoniae,128 µg/mL
